Experiments:
Assay in all cases: biochemical
Parameters in all cases: KINOMEscan active-site competition binding panel (468 kinase assays), per cent of control at 1000 nM
Conditions in all cases: KINOMEscan per cent of control (binding competition); read-out: Percent Control
TLK2 = TLK2 (Homo sapiens, UniProt Q86UE8)
Excerpt: (§1) Figure S7 / Percent Control

p38-alpha = molecular target: T1, p38-alpha (Homo sapiens, UniProt Q16539)
T1 construct: gene MAPK14
Excerpt: as §1

VEGFR2 = molecular target: T2, VEGFR2 (Homo sapiens, UniProt P35968)
T2 construct: gene KDR
T2 sequence (P35968 whole entry): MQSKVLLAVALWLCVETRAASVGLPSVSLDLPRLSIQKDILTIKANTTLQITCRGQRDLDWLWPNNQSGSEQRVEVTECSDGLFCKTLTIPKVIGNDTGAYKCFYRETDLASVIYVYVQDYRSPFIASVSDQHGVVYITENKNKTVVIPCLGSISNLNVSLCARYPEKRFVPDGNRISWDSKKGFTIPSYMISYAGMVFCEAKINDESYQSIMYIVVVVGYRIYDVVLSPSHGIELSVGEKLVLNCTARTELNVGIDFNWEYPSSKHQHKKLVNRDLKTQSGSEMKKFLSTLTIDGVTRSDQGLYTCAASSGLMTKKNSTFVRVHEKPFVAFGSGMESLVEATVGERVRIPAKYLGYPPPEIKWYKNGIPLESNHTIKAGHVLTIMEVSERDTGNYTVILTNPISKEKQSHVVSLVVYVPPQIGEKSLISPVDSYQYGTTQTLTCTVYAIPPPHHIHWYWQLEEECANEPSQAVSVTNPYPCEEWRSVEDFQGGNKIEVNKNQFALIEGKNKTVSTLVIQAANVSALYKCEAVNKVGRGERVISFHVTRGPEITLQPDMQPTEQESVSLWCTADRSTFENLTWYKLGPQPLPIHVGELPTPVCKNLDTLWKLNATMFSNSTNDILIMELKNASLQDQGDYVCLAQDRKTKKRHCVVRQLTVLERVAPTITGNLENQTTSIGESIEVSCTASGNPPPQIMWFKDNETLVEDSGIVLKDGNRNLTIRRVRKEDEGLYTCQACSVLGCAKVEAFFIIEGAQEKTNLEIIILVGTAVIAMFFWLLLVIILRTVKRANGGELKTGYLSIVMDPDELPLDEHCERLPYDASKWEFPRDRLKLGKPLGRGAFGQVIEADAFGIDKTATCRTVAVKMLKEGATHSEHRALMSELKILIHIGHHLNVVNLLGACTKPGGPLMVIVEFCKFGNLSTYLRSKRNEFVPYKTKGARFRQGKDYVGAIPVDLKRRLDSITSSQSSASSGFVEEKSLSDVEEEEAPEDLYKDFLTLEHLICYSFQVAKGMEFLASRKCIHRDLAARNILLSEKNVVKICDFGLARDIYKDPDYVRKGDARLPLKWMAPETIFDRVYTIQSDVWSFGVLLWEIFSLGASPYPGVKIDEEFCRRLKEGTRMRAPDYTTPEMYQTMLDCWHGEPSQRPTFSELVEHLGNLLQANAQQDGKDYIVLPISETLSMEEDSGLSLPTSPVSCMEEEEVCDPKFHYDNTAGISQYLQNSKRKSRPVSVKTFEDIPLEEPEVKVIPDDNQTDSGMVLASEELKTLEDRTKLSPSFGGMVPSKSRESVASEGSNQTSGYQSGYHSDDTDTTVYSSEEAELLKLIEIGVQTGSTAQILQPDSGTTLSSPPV
Excerpt: as §1

HASPIN = HASPIN (Homo sapiens, UniProt Q8TF76)
Excerpt: as §1

FGFR1 = FGFR1 (Homo sapiens, UniProt P11362)
Excerpt: as §1

p38-beta = molecular target: T3, p38-beta (Homo sapiens, UniProt Q15759)
T3 construct: gene MAPK11
Excerpt: as §1

ROCK2 = ROCK2 (Homo sapiens, UniProt O75116)
Excerpt: as §1

CDKL5 = CDKL5 (Homo sapiens, UniProt O76039)
Excerpt: as §1

BMX = BMX (Homo sapiens, UniProt P51813)
Excerpt: as §1

HIPK2 = HIPK2 (Homo sapiens, UniProt Q9H2X6)
Sequence of HIPK2 (Q9H2X6 whole entry): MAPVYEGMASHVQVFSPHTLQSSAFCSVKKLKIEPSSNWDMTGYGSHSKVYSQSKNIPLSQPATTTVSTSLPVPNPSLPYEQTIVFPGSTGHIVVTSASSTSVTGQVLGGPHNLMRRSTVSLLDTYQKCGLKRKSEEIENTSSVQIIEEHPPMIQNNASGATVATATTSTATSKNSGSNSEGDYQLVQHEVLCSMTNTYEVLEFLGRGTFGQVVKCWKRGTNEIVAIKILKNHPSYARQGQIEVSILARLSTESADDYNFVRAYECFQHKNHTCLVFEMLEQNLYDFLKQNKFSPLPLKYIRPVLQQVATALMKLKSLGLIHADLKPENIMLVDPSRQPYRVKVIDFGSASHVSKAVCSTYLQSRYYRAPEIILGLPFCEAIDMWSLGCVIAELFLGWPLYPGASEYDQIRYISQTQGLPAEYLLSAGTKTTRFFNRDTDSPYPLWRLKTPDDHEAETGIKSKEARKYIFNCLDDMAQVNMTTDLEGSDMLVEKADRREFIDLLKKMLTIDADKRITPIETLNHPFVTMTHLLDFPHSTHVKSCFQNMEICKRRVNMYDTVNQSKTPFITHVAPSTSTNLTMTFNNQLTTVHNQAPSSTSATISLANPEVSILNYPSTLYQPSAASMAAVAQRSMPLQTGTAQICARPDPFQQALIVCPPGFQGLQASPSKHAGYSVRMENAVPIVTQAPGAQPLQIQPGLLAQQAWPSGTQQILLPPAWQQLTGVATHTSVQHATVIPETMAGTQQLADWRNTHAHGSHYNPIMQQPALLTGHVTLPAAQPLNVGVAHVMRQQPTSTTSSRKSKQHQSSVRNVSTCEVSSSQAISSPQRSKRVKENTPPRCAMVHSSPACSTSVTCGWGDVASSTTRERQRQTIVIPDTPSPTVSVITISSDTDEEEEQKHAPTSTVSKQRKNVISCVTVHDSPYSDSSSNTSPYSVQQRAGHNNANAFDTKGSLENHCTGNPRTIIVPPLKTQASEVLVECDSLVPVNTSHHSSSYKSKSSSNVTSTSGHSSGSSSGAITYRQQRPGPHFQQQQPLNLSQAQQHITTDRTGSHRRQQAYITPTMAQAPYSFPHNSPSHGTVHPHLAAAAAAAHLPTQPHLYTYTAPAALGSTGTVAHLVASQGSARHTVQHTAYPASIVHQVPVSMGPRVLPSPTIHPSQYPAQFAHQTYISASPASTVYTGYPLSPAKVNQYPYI
Excerpt: as §1

[1] = molecular target: T4, RSK1(Kin.Dom.1-N-terminal) (Homo sapiens, UniProt Q15418)
T4 construct: gene RPS6KA1; Kin.Dom.1-N-terminal
Excerpt: as §1

MYO3B = MYO3B (Homo sapiens, UniProt Q8WXR4)
Sequence of MYO3B (Q8WXR4 whole entry): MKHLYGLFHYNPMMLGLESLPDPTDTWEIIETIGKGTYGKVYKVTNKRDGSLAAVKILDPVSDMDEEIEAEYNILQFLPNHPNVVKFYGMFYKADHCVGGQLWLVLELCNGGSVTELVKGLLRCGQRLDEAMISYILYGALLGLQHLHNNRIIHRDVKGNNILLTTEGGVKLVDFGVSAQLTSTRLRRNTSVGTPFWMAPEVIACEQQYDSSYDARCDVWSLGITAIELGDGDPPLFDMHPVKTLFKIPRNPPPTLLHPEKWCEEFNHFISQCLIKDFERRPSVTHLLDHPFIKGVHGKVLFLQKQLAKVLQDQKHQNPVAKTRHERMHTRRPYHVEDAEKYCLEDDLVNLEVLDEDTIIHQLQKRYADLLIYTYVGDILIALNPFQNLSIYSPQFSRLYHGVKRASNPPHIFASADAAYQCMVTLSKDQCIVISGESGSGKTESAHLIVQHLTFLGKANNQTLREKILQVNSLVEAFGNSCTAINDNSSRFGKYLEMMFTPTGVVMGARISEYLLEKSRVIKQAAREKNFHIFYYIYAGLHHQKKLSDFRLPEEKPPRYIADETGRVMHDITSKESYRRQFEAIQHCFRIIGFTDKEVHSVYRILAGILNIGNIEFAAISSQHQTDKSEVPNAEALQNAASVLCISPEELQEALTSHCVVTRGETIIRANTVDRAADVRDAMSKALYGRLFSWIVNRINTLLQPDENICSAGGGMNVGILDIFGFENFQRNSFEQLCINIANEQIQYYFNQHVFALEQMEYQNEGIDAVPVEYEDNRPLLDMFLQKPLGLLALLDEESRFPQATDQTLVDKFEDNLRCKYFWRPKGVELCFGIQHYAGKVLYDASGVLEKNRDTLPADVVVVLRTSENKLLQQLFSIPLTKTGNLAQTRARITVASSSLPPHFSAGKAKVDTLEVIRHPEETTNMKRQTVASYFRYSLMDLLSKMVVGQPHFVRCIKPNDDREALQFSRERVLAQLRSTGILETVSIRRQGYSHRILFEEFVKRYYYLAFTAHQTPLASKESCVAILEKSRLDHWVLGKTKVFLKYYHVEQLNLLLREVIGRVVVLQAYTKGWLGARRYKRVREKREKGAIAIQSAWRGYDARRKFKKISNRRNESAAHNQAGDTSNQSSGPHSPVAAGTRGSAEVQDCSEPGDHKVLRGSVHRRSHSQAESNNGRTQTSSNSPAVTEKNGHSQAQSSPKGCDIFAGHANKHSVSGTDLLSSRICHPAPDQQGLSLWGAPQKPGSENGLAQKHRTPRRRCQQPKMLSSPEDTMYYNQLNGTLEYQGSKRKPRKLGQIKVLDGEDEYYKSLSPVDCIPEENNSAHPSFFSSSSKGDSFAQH
Excerpt: as §1

CDK4-cyclinD1 = molecular target: T5, CDK4-cyclinD1 (Homo sapiens, UniProt P11802)
T5 construct: cyclinD1
T5 sequence (P11802 whole entry): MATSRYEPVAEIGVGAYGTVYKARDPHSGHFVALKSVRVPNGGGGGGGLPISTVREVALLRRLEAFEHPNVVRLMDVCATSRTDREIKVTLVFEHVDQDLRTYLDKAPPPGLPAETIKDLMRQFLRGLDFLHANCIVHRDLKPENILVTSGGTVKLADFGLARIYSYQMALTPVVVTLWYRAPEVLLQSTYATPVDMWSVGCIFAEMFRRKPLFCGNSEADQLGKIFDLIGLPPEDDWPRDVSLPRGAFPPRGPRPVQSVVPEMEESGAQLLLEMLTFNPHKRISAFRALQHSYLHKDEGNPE
T5 sequence (P24385 whole entry partner): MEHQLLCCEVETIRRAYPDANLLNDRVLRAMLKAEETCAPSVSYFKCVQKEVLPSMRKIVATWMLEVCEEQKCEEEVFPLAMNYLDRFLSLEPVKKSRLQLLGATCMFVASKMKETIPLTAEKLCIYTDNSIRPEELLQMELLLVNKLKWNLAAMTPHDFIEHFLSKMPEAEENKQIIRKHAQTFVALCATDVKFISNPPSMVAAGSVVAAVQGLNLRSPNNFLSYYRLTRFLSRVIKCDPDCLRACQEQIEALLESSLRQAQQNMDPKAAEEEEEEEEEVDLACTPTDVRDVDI
Excerpt: as §1

TEC = TEC (Homo sapiens, UniProt P42680)
Excerpt: as §1

CDK9 = CDK9 (Homo sapiens, UniProt P50750)
Sequence of CDK9 (P50750 whole entry): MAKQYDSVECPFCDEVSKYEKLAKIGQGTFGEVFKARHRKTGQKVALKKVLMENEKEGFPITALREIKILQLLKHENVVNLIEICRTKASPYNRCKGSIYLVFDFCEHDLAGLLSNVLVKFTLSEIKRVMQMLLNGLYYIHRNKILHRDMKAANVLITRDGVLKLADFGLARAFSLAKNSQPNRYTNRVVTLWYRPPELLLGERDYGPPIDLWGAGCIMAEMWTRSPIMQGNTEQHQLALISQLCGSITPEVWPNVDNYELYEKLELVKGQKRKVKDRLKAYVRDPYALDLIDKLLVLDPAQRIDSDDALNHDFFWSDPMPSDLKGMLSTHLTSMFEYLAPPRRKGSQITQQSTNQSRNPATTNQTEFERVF
Excerpt: as §1

DCAMKL1 = molecular target: T6, DCAMKL1 (Homo sapiens, UniProt O15075)
T6 construct: gene DCLK1
Excerpt: as §1

PIK3CA(E545A) = PIK3CA(E545A) (Homo sapiens, UniProt P42336, E545A)
Excerpt: as §1

MINK = molecular target: T7, MINK (Homo sapiens, UniProt Q8N4C8)
T7 construct: gene MINK1
Excerpt: as §1

GRK4 = GRK4 (Homo sapiens, UniProt P32298)
Excerpt: as §1

HCK = HCK (Homo sapiens, UniProt P08631)
Excerpt: as §1

STK33 = STK33 (Homo sapiens, UniProt Q9BYT3)
Excerpt: as §1

EPHA2 = EPHA2 (Homo sapiens, UniProt P29317)
Excerpt: as §1

PRKCI = PRKCI (Homo sapiens, UniProt P41743)
Excerpt: as §1

VPS34 = molecular target: T8, VPS34 (Homo sapiens, UniProt Q8NEB9)
T8 construct: gene PIK3C3
Excerpt: as §1

CDC2L5 = molecular target: T9, CDC2L5 (Homo sapiens, UniProt Q14004)
T9 construct: gene CDK13
Excerpt: as §1

Cn1c(=O)[nH]c2ccc(-c3cccc(C(=O)NC4CCn5ccnc5C4)c3)cc21 (stereo not shown) [Z36-MP5]
remaining binding at 1 µM (TLK2): 53% | remaining binding at 1 µM (p38-alpha): 63% | remaining binding at 1 µM (VEGFR2): 56% | remaining binding at 1 µM (HASPIN): 71% | remaining binding at 1 µM (FGFR1): 55% | remaining binding at 1 µM (p38-beta): 87% | remaining binding at 1 µM (ROCK2): 61% | remaining binding at 1 µM (CDKL5): 39% | remaining binding at 1 µM (BMX): 100% | remaining binding at 1 µM (HIPK2): 64% | remaining binding at 1 µM [1]: 93% | remaining binding at 1 µM (MYO3B): 91% | remaining binding at 1 µM (CDK4-cyclinD1): 67% | remaining binding at 1 µM (TEC): 98% | remaining binding at 1 µM (CDK9): 37% | remaining binding at 1 µM (DCAMKL1): 53% | remaining binding at 1 µM (PIK3CA(E545A)): 89% | remaining binding at 1 µM (MINK): 69% | remaining binding at 1 µM (GRK4): 52% | remaining binding at 1 µM (HCK): 95% | remaining binding at 1 µM (STK33): 92% | remaining binding at 1 µM (EPHA2): 88% | remaining binding at 1 µM (PRKCI): 71% | remaining binding at 1 µM (VPS34): 49% | remaining binding at 1 µM (CDC2L5): 55%
